Assay results from patent US20170058319A1, “NANOSENSOR FOR ASSESSING THROMBIN INHIBITORS” (VIRGINIA COMMONWEALTH UNIVERSITY, priority 2014, published 2017).
“Also recorded” adds a separate entry of the source. Values belong to the molecule of their own block, whether it stands above or below them.

Key:
[1] = cited from earlier work
[2] = Procedure: Stability of Au-TH nanoparticles was studied at RT and at −80° C. The NPs were kept in dark at RT for six hours and at −80° C. for 1 month. Absorbance spectra were measured every hour.
[3] = Catalytic activity of surface bound thrombin, Michaelis Menten kinetics; format: biochemical; conditions: PBS pH 7.4, 37° C., Spectrozyme TH 0.7-750 μM
Procedure: Michaelis Menten kinetics were utilized to test the catalytic activity of the surface bound thrombin on the AuNP-TH using a microplate chromogenic substrate hydrolysis assay. Briefly, 165 μL aliquots of PBS buffer pH 7.4 were placed in a 96-well microplate, to which either 5 μL of thrombin at a concentration of 0.04 mg/ml (1 μM) or 5 μL of AuNP-TH was added. The solution was incubated for 5 minutes at 37° C., followed by addition of 30 μL of serial dilutions of Spectrozyme TH substrate such that the final concentrations ranged from 0.7-750 μM. The velocity of substrate hydrolysis was measured by monitoring the slope of the increase in absorbance at 405 nm. A plot of velocity of substrate hydrolysis (v) vs substrate concentration ([S]) (FIG. 5) was fit to the Michaelis Menten equation below to yield the Michaelis Menten constant (KM) and maximum velocity of the reaction (VMAX), which are a direct measure of the catalytic efficiency of the enzyme.

Au-TH nanoprobe = target: T1, Au-TH nanoprobe (Bos taurus, UniProt P00735); experiment: Quenching of [5F]-hirudin (54-65) SO3- fluorescence by Au-TH nanoprobe; format: binding, bovine; conditions: 30 nM HirP, 0.5 h at RT, 525 nm (λex=488 nm)
T1 construct: An aliquot of bovine α-thrombin (200 μg) from a stock solution; purchased Haematologic Technologies, Vermont, USA BCT-1020

[4] = target: T2, Au-TH-HirP nanoprobe (NSET pair) (Bos taurus, UniProt P00735); experiment: Probing antithrombin levels in buffer with Au-TH-HirP nanoprobe (NSET pair); format: binding, bovine; conditions: for increase in fluorescence at 525 nm: 1 hr incubation
T2 construct: An aliquot of bovine α-thrombin (200 μg) from a stock solution; purchased Haematologic Technologies, Vermont, USA BCT-1020
Procedure: Au-TH-NP (6 nM, 50 μL) and HirP (50 μL, 30 nM) were mixed with 20 mM Tris-HCl buffer, pH 7.4, containing 100 mM NaCl, 2.5 mM CaCl2 and 0.1% PEG8000 and used as the standard nano-metal surface energy transfer (NSET) pair. Antithrombin (AT) was serially diluted starting from 100 μM to 1 pM by adding 20 mM Tris-HCl buffer, pH 7.4. Serially diluted AT solutions were then incubated with standard NSET pair in a 96-well plate for 0-1 h at RT with gentle rocking. A solution of 100 μL of Au-TH-HirP nanoprobe (NSET pair) mixed with 50 μL of buffer was used a control (F0). After 1 h of incubation, the 96-well plate was read at 525 nm (λex=488 nm) (F). A plot of F/F0 as Y-axis against AT concentration as X-axis is shown as FIG. 5. […] The fluorescence increases were smaller at 15, 30 and 45 min timepoints (FIG. 5).

[5] = target: T3, surface bound thrombin on the AuNP (Bos taurus, UniProt P00735); experiment: Reactivity of surface bound thrombin to antithrombin, chromogenic substrate hydrolysis assay; format: biochemical, bovine; conditions: AT alone
T3 construct: An aliquot of bovine α-thrombin (200 μg) from a stock solution; purchased Haematologic Technologies, Vermont, USA BCT-1020
Procedure: To test if the surface bound thrombin on the AuNP is reactive towards antithrombin, chromogenic substrate hydrolysis assay like the one mentioned above was performed in the presence of antithrombin and heparin. In a 96-well microplate, 80 μL of PBS buffer was mixed with 5 μL of either AuNP or water. Following this, 5 μL of AT (100 μM) and 5 μL of heparin (3.6 mM) was added and the mixtures were incubated at 25° C. for 20 minutes. Controls were kept with and without AT and heparin, respectively. After incubation, 5 μL of 5 mM Spectrozyme TH was added and the rate of substrate hydrolysis was monitored by observing the absorbance at 405 nm. The velocity of the substrate hydrolysis as obtained by the slope was compared to that of the controls in order to assess the reactivity of the thrombin towards AT (FIG. 6). An approximate 70% reactivity towards AT in the presence of heparin is observed for the AuNP-TH sample.

[6] = in vivo; cited from earlier work
[7] = target: T4, NSET pair (Au-TH-NS and HirP) (Bos taurus, UniProt P00735); experiment: Probing antithrombin levels in plasma with NSET pair; format: binding, bovine; conditions: 600 μM BSA, 5-20 μL
T4 construct: An aliquot of bovine α-thrombin (200 μg) from a stock solution; purchased Haematologic Technologies, Vermont, USA BCT-1020
Procedure: A 96-well plate was used for this experiment. The baseline fluorescence of the NSET pair (Au-TH-NS (6 nM, 50 μL) and HirP (50 μL, 30 nM) in 50 μL of 20 mM Tris-HCl buffer, pH 7.4, containing 100 mM NaCl, 2.5 mM CaCl2 and 0.1% PEG8000) was measured by recording the fluorescence emission at 525 nm (λex=488 nm). The NSET pair was then incubated with different volumes of plasma (5 μL, 10 μL, 15 μL and 20 μL). To assess specificity of AT reaction, the NSET pair was also incubated with 600 μM BSA (5 μL, […], 15 μL and 20 μL). The fluorescence intensity was recorded within 1-3 min after incubation began (FIG. 6).

AT levels = conditions: in vivo; cited from earlier work
PF-4 heparin complex = target: T5, PF-4 heparin complex (Homo sapiens, UniProt P02776); conditions: in vivo; cited from earlier work
T5 sequence (P02776 32-101): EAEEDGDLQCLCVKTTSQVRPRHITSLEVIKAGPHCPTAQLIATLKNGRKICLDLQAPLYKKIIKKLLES

Molecule: CCCCCCOC(=O)NC(=N)c1ccc(NCc2nc3cc(C(=O)N(CCC(=O)OCC)c4ccccn4)ccc3n2C)cc1 [Dabigatran etexilate]
liver function tests ([1]; doses as high as 300 mg twice a day for 12 weeks): no abnormal liver function tests
patients who developed significant bleeding ([1]; trial with and without aspirin): approximately 11%

Molecule: Au-TH nanoparticles: gold nanoparticles covalently linked to bovine alpha-thrombin
stability, change in absorbance spectra ([2]; RT, in dark, six hours): essentially no change
stability, degradation on storage ([2]; −80° C., 1 month): did not exhibit any degradation
VMAX and KM / catalytic efficiency compared with free thrombin ([3]; listed as Au-TH NP): identical to that of free thrombin
VMAX and KM / catalytic efficiency compared with free thrombin ([3]; listed as AuNP-TH): remain almost the same as that of free thrombin

Molecule: [5F]-hirudin (54-65) SO3^− [HirP]
quenching of fluorescence from HirP (Au-TH nanoprobe): approximately 86%

fluorescence increases at earlier timepoints ([4]; 15, 30 and 45 min timepoints versus 1 hr): smaller
increase in fluorescence at 525 nm ([4]; AT 1 μM): approximately 40%
increase in fluorescence at 525 nm ([4]; AT 10 μM): ~25
increase in fluorescence at 525 nm ([4]; AT 100 μM): ~20%
increase in fluorescence ([4]; AT concentrations less than 1 μM): Noticeable increases
neutralization of surface bound thrombin by AT [5]: up to 60%
Molecule: antithrombin [AT]

Molecule: bivalirudin
half-life [6]: 25 min

Molecule: bovine serum albumin [BSA]
change in emission intensity [7]: significant decrease; also recorded: Corresponding increases were not observed

Molecule: heparin
incidence of acquired AT deficiency (AT levels): ≤ 25%

Molecule: unfractionated heparin [UFH]
patients forming antibodies to PF-4 heparin (PF-4 heparin complex): 30-40%
